The results in this text go back to ChEMBL document CHEMBL5143647, “Design, synthesis and biological evaluation of novel pyridine derivatives as gut-selective NaPi2b inhibitors” (Bioorg Med Chem Lett, 2022).

In brackets after ≈: the same amount, converted by molar mass. Activity calls are given as the source filed them. The calls are words filed in the database; no cut-off is given here.

Data set [1] deals with T1, Sodium-dependent phosphate transport protein 2B (Homo sapiens, UniProt O95436).
T1 sequence (O95436 whole entry): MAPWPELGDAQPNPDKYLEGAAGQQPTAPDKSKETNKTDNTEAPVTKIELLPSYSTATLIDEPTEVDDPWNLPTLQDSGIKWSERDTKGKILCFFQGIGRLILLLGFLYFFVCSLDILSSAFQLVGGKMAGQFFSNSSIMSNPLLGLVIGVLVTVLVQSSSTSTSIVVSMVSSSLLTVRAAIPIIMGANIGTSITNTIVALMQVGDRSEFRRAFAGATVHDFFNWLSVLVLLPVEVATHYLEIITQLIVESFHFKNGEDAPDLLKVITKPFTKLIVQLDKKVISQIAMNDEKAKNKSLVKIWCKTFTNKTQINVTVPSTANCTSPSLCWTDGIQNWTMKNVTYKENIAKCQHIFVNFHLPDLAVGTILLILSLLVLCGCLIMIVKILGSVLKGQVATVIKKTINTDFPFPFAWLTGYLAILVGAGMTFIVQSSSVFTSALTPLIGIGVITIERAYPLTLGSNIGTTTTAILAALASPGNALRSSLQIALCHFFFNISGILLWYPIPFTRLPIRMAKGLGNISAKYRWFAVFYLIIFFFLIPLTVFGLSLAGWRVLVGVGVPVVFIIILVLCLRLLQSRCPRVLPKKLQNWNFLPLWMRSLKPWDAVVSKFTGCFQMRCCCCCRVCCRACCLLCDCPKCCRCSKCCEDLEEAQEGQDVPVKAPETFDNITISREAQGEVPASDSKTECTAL
Nature of the data set: Inhibition of human NaPi2b stably expressed in CHO-K1 cells assessed as reduction in H2[33P]O4 uptake incubated for 30 mins by liquid scintillation counting method. The class given is cell-based.

Data set [2] in a line: Oral bioavailability in Sprague-Dawley rat at 11.9 mg/kg measured for 24 hrs by liquid chromatography-tandem mass spectrometry. Type of data set: ADME, organism-based. Particulars: in vivo.
Data set [3] can be described thus: Oral bioavailability in Sprague-Dawley rat at 10 mg/kg measured for 24 hrs by liquid chromatography-tandem mass spectrometry relative to control. The class given is ADME, organism-based. The conditions noted are these: in vivo.
Data set [4] can be described thus: Drug excretion in Sprague-Dawley rat feces at 10 mg/kg, po measured for 24 hrs by liquid chromatography-tandem mass spectrometry relative to control. Particulars: faeces, read-out: Drug excretion. The class given is ADME, organism-based.
Data set [5] is described as follows: Solubility in FaSSIF at pH 6.6 incubated for 25 degC for 2 hrs further incubated water bath at 35 degC for 22 hrs by HPLC analysis. Type of data set: physicochemical.
Data set [6] in a line: Solubility in FeSSIF at pH 4.9 incubated for 25 degC for 2 hrs further incubated water bath at 35 degC for 22 hrs by HPLC analysis. The class given is physicochemical.
Another data set relates to Rattus norvegicus. Briefly: In vivo inhibition of NaPi2b in Sprague-Dawley rat assessed as reduction in phosphate absorption at 10 mg/kg, po after 5 mins followed by NaH2PO4 containing 32P-phosphate solution treatment and measured after 15 to 30 mins by liquid scintillation counting method. Particulars: dose […], time 35.0 min. Type of data set: functional, organism-based.

Data set [7] addresses T2, Sodium-dependent phosphate transport protein 2B (Homo sapiens) (UniProt O95436).
T2 sequence (whole entry): T1 sequence (O95436 whole entry)
Briefly: Inhibition of human NaPi2b at 1 uM relative to control.

The IC50 is the concentration needed to halve the response being measured. A word on the bioavailability: it is the share of a dose that reaches the circulation, judged against a reference dose that is usually intravenous. Low values mean poor availability, high ones good availability. Broadly, the solubility is the dissolved amount per volume that the medium holds. A higher solubility goes with a readily soluble substance. A word on the inhibition: it is the drop in the measured response relative to a control, in per cent.

Turning to `CCC(CC)N(CCN(C)C(=O)CCC(=O)O)Cc1cccc(C(=O)Nc2ccc(N3CCOCC3)nc2C(=O)Nc2ccc(CCc3ccc(C(=O)O)cc3)cc2)c1`, the half-maximal inhibitory concentration (IC50) in data set [1] came out at 205 nM. For the molecule `CCN([C@H]1CC[C@H](C(=O)O)CC1)S(=O)(=O)c1cccc(C(=O)Nc2ccc(N3CCCCC3)nc2C(=O)Nc2ccc(CCc3ccc(C(=O)NS(=O)(=O)NC)cc3)cc2)c1`, the bioavailability in data set [2] is 10.4%.

`CCN([C@H]1CC[C@H](C(=O)NCCOCCOCCOCCO)CC1)S(=O)(=O)c1cccc(C(=O)Nc2ccc(N3CCCCC3)nc2C(=O)Nc2ccc(CCc3ccc(C(=O)O)cc3)cc2)c1`: the bioavailability in data set [3] worked out at 2.7%. Moreover, the dose excreted at 24 h in data set [4] is 99.1%. Also, the solubility at 24 h in data set [5] is 20.5 µg/mL (≈ 21.4 µM); in data set [6], 15.9 µg/mL (≈ 16.6 µM). Besides, in the data set with Rattus norvegicus, the inhibition result is “Active”. As for `CCC(CC)N(CCN(C)C(=O)CCC(=O)O)Cc1cccc(C(=O)Nc2ccc(N3CCCCC3)nc2C(=O)Nc2ccc(Oc3ccc(C(=O)O)cc3)cc2)c1`, in data set [1], the half-maximal inhibitory concentration (IC50) worked out at 162 nM. Still for that read-out and setting: next, `CCC(CC)N(CCN(C)C(=O)CCC(=O)O)Cc1cccc(C(=O)Nc2ccc(N3CCCCC3)nc2C(=O)Nc2ccc(Oc3ccc(C(=O)O)cn3)cc2)c1`: 715 nM. Consider `CCC(CC)N(CCN(C)C(=O)CCC(=O)O)Cc1cccc(C(=O)Nc2[nH]c3c(c2C(=O)Nc2ccc(CCc4ccc(C(=O)O)cc4)cc2)CCCC3)c1`, for which the inhibition in data set [7] was 87%.
